Here are results for 2 molecules from patent publication US8895077B2, “Methods for preventing or treating infectious diseases caused by extracellular microorganisms, including antimicrobial-resistant strains thereof, using gallium compounds” (priority 2007, dated 2014).

The subject of data set [1] is Methicillin-resistant Staphylococcus aureus (MRSA). The experiment in a line: MIC/MBC susceptibility test, macrodilution broth method. Type of data set: cell-based. As to conditions: MRSA ATCC 33592; Tryptic soy agar with 5% sheep blood; 36° C. for 48 hours; 5.2 × 10^5 CFU/ml. The method, then: (§1) Susceptibility of various microorganisms to gallium was tested by determining the minimum inhibitory concentration (MIC) and minimum bactericidal concentration (MBC) for each microorganism using gallium nitrate. In general, MIC is determined by (i) mixing a series of broths, each containing a standard number of microorganisms, with serially diluted solutions of the gallium compound; and (ii) determining the MIC, after incubation, that is the lowest concentration of the gallium compound that inhibits the growth of the microorganism. The lower the MIC, the more susceptible the organism is. The MBC is determined by subculturing an aliquot of each sample from the MIC test on an appropriate agar plate containing no gallium compound.
(§2) Specifically, in the present experiment, two grams of gallium nitrate powder were dissolved in 10 ml of filter-sterilized deionized water and the resulting 20% (w/v) (i.e., 200 mg/ml) solution was once again filter-sterilized. Two-fold serial dilutions were prepared in sterile deionized water down to 0.156% (i.e., 1.56 mg/ml) for the tests for most of the organisms, except for the test for Candida albicans, in which 10%, 1%, 0.5%, 0.1%, 0.05%, 0.01%, 0.005% and 0.001% of gallium nitrate solutions were prepared.
(§3) All organisms were obtained from the American Type Culture Collection (ATCC), Manassas, Va. Each microorganism was picked from the seed culture (see Table 1) and inoculated in an appropriate type of broth to obtain a 0.5 McFarland turbidity standard. The standard suspension of the microorganism was then diluted to 1:100 with the broth and used for the tests.
(§4) Each microorganism was tested in duplicate by either a microdilution broth method in 96-well plates (i.e., 0.1 ml of the gallium nitrate solution mixed with 0.1 ml of the microorganism suspension) or a macrodilution broth method in test tubes (i.e., 1 ml of the gallium nitrate solution mixed with 1 ml of the microorganism suspension) as follows: […]
(§5) The growth of the microorganisms were determined by visual observation of turbidity in the samples. […]

The subject of a further data set is Salmonella typhi. Described as above. The class given is cell-based. The conditions noted are these: Salmonella typhi ATCC 6539; Tryptic soy agar with 5% sheep blood; 36° C. for 48 hours; 8.3 × 10^5 CFU/ml. The protocol:
as §1, §2, §3, §4, §5

The test system of data set [2] is Vancomycin-resistant Enterococcus faecalis (VRE). Described as above. The class given is cell-based. As to conditions: VRE ATCC 51575; Tryptic soy agar with 5% sheep blood; 36° C. for 48 hours; 3.9 × 10^5 CFU/ml. The method, then: as §1, §2, §3, §4, §5
Another data set has as its system Campylobacter jejuni. The experiment in a line: MIC/MBC susceptibility test, microdilution broth method. Type of data set: cell-based. The conditions noted are these: Campylobacter jejuni ATCC 29428; Tryptic soy agar with 5% sheep blood; 36° C. for 48 hours; 4.9 × 10^5 CFU/ml. The method, then:
as §1, §2, §3
(§6) Each microorganism was tested in duplicate by either a microdilution broth method in 96-well plates (i.e., 0.1 ml of the gallium nitrate solution mixed with 0.1 ml of the microorganism suspension) or a macrodilution broth method in test tubes (i.e., 1 ml of the gallium nitrate solution mixed with 1 ml of the microorganism suspension) as follows:
(§7) Microdilution broth method: Candida albicans; Escherichia coli O157:H7; and Campylobacter jejuni.
(§8) The growth of the microorganisms were determined by visual observation of turbidity in the samples.
(§9) To determine MBC, 10 μl of each sample used in MIC were inoculated onto an appropriate agar plate and incubated.

The next data set concerns Candida albicans. Described as above. The class given is cell-based. As to conditions: Candida albicans ATCC 10231, 27° C. for 48 hours, 9.75 × 10^5 CFU/ml. The protocol:
as §1, §2, §3, §6, §7, §8, §9

The next data set relates to Escherichia coli O157:H7. Described as above. Type of data set: cell-based. As to conditions: E. coli O157:H7 ATCC 35150; Tryptic soy agar with 5% sheep blood; 36° C. for 48 hours; 1.38 × 10^6 CFU/ml. The method, then:
as §1, §2, §3, §6, §7, §8, §9

The conditions of data set [3]: healthy adults; intravenous infusion for at least 7 days; from U.S. Pat. No. 6,203,822; cited from earlier work.
The test system of data set [4] is Vancomycin-resistant Enterococcus faecalis (VRE). The data set can be described thus: CLSI Vancomycin disk-diffusion test. The class given is cell-based. The conditions noted are these: VRE ATCC 51575; CLSI Vancomycin resistant range: ≦14 mm. In general terms: Agar diffusion results depend on both activity and mobility in agar.

SMILES strings stand for the structures.

By MIC is commonly meant the least concentration at which growth counts as inhibited. For the molecule `O=[N+]([O-])[O-].O=[N+]([O-])[O-].O=[N+]([O-])[O-].[Ga+3]` [gallium nitrate], the MBC in data set [1] is 12500 µg/mL; with Salmonella typhi, 6250 µg/mL; in data set [2] it was 25000 µg/mL; in the data set on Campylobacter jejuni it was less than 780 µg/mL; against Candida albicans (Sabouraud dextrose agar), more than 100000 µg/mL; in the data set with Escherichia coli O157:H7, 6250 µg/mL. Also, the minimal inhibitory concentration (MIC) against Candida albicans (Sabouraud Dextrose broth) was 10000 µg/mL. The tolerated dose entry in data set [3] is recorded as “at least 200 mg/m^2/day”.

Consider `CN[C@H](CC(C)C)C(=O)N[C@H]1C(=O)N[C@@H](CC(N)=O)C(=O)N[C@H]2C(=O)N[C@H]3C(=O)N[C@H](C(=O)N[C@H](C(=O)O)c4cc(O)cc(O)c4-c4cc3ccc4O)[C@H](O)c3ccc(c(Cl)c3)Oc3cc2cc(c3O[C@@H]2O[C@H](CO)[C@@H](O)[C@H](O)[C@H]2O[C@H]2C[C@](C)(N)[C@H](O)[C@H](C)O2)Oc2ccc(cc2Cl)[C@H]1O` [Vancomycin], for which, in data set [4], the zone of inhibition entry is “^bAntibiotics resistance of the organism was confirmed by CLSI Vancomycin disk-diffusion test. The zone of inhibition was 10 mm (CLSI Vancomycin resistant range: ≦14 mm)”.
